Laboratory results from publication PMC5642271 (American journal of veterinary research, 2016).
Entries after “also recorded” stand apart in the source; their conditions may differ. Read-outs that look alike come from different tables or passages of the source.

What was measured:
[1] = test system: mTOR pathway; settings: IM 0.01 to 0.08 mg/kg, peripheral blood mononuclear cells and tumor biopsy specimens, each dose cohort; cited from earlier work
[2] = test system: dogs with osteosarcoma; settings: cited from earlier work
[3] = blood samples stored frozen at −80°C for 90 days and subsequently thawed; cited from earlier work
[4] = test system: healthy dogs; experiment: Monitoring of adverse effects in healthy dogs during the study; type: in vivo; settings: 0.1 mg/kg PO once (experiment 1) and once daily for 5 days (experiment 2), vomiting between 3 and 5 hours after administration on day 4 of experiment 2
[5] = Pharmacokinetics of rapamycin in blood after a single oral dose; type: in vivo, dogs; settings: experiment 1: 0.1 mg/kg PO once
[6] = test system: dogs with experimental renal allografts; settings: cited from earlier work
[7] = test system: canine osteosarcoma and malignant melanoma cell lines; settings: immortalized canine cell lines; cited from earlier work
[8] = Pharmacokinetics of rapamycin in blood after oral dosing once daily for 5 days; type: in vivo, dogs
[9] = compartmental NME analysis, 5 dogs
[10] = experiment 2, day 5 of 0.1 mg/kg PO once daily, compartmental NME analysis
[11] = experiment 2: 0.1 mg/kg PO once daily for 5 days, compartmental NME analysis, value before the change on day 5, mean for 4 dogs
[12] = experiment 2: 0.1 mg/kg PO once daily for 5 days, whole blood, mean of n = 4, SD

CO[C@H]1C[C@@H]2CC[C@@H](C)[C@@](O)(O2)C(=O)C(=O)N2CCCC[C@H]2C(=O)O[C@H]([C@H](C)C[C@@H]2CC[C@@H](O)[C@H](OC)C2)CC(=O)[C@H](C)/C=C(\C)[C@@H](O)[C@@H](OC)C(=O)[C@H](C)C[C@H](C)/C=C/C=C/C=C/1C [rapamycin, Rapamycin]
modulation of the mTOR pathway [1]: modulation of the mTOR pathway was detected
maximally tolerated dose ([2]; IM injection, doses ranging from 0.01 to 0.08 mg/kg): a maximally tolerated dose was not achieved
injection site reaction ([2]; dog, in vivo): sterile abscesses at the injection site
rapamycin concentration in stored blood samples (stability) [3]: not substantially affected
adverse effects observed [4]: None of the dogs had a substantial change in energy level, appetite, water intake, urination, or defecation; also recorded: One dog vomited once; also recorded: No other adverse effects were observed
V1/f, volume of the central compartment after oral administration, mean estimate [5, 9]: 6.74 L/kg
V2/f, volume of the peripheral compartment after oral administration, mean estimate [5, 9]: 18.1 L/kg
ka, absorption rate constant, mean estimate [5, 9]: 0.358 h⁻¹
Cmax (mean ± SD) ([5]; whole blood, mean of n = 5, SD): 8.39 ± 1.73 ng/mL
Tmax (mean ± SD) ([5]; whole blood, mean of n = 5, SD): 3.3 ± 2.5 h
concentration 48 hours after drug administration (mean ± SD) ([5]; whole blood, mean of n = 5, SD): 1.38 ± 0.45 ng/mL
t1/2, terminal half-life (mean ± SD) ([5]; whole blood, noncompartmental, mean of n = 5, SD): 38.7 ± 12.7 h
prevention of renal allograft rejection ([6]; 0.05 mg/kg, IV): did not provide sufficient immunosuppression to prevent rejection of the renal allograft
prevention of renal allograft rejection ([6]; 0.1 mg/kg, IM q 48 h or twice weekly, in combination with cyclosporine and antilymphocyte serum): not sufficient to prevent renal allograft rejection
viable tumor cells after exposure to rapamycin [7]: significant, dose-dependent decrease in viable tumor cells
mean V1/f on the last day (day 5) of administration [8, 10]: 16.8 L/kg
mean ka on the last day (day 5) of administration [8, 10]: 2.17 h⁻¹
V2/f, volume of the peripheral compartment after oral administration, mean estimate ([8]; experiment 2: 0.1 mg/kg PO once daily for 5 days, compartmental NME analysis, mean for 4 dogs): 22.1 L/kg
V1/f, volume of the central compartment after oral administration, mean estimate [8, 11]: 4.53 L/kg
ka, absorption rate constant, mean estimate [8, 11]: 0.294 h⁻¹
Tmax (mean ± SD) ([8]; experiment 2: 0.1 mg/kg PO once daily for 5 days, mean of n = 4, SD): 4.5 ± 1.0 h
Cmax (mean ± SD) [8, 12]: 5.49 ± 1.99 ng/mL
concentration 48 hours after drug administration (mean ± SD) [8, 12]: 1.70 ± 0.40 ng/mL
Parameter characterizing the change in ka on the last day (day 5) of rapamycin administration in experiment 2 ([8]; βOCC2 of the NME model, θμD5 = θμD1−4e^βOCC2, P = 0.002): 2.0
Parameter characterizing the change in V1/f on the last day (day 5) of rapamycin administration in experiment 2 ([8]; βOCC2 of the NME model, P = 0.002): 1.31
